Converted amounts (≈) assume the structure as drawn. Read-outs that look alike come from different tables or passages of the source.
Assays:
cleaved PARP = experiment: PARP cleavage in HeLa cells (Western Blot); format: cell-based; parameters: key: represented by the symbol ‘+’ which indicates the relative extent of modulation; ++: represented by the symbol ‘+’ which indicates the relative extent of modulation; +++: represented by the symbol ‘+’ which indicates the relative extent of modulation; ++++: represented by the symbol ‘+’ which indicates the relative extent of modulation; conditions: 24 hrs, 0.03-3.0 μM
Method: HeLa Cells were seeded (0.3×10^6 Cells/well) into a 6 well plate and after 24 hrs compounds were added in 5 different concentrations (0.03, 0.1, 0.3, 1.0, 3.0 μM). After 24 hrs cells were lysed and cellular extract was used for assessing apoptotic activity by detection of cleaved PARP by Western Blot using monoclonal Anti-poly(ADP-Ribose) polymerase antibody, Clone C-2-10(Sigma).

[1] = Absolute aqueous solubility; format: physicochemical; conditions: 25 °C, thermodynamic from solid; water, about 6 hrs equilibration, 25 deg centigrade, UV
Method: The objective of the study was to determine the absolute solubility of the powder form of the test compounds in water. Brief procedure: The powder form of test compounds was allowed to saturate in an aqueous medium and is equilibrated for about 6 hrs until the compound precipitates. The precipitated solution was centrifuged at 15,000 rpm for 10 mins at 25 deg centigrade and the supernatant solution was analyzed by UV spectrometry. If required the supernatant was diluted further until the absorbance by UV spectroscopy was within the limits of the standard curve obtained with the test compound. λmax was selected from UV spectra having maximum absorbance for that compound.

acetyl-Histone H3 = experiment: Histone hyperacetylation in Hela cells (Western Blot); format: cell-based; parameters: key: represented by the symbol ‘+’ which indicates the relative extent of modulation; ++: represented by the symbol ‘+’ which indicates the relative extent of modulation; +++: represented by the symbol ‘+’ which indicates the relative extent of modulation; ++++: represented by the symbol ‘+’ which indicates the relative extent of modulation; conditions: 24 hrs, 0.03-3.0 μM
Method: (§1) HeLa Cells were seeded at a density of 0.4×10^6 Cells/well into 6 well plates and incubated for 24 h The compounds were tested at 5 different concentrations (0.03, 0.1, 0.3, 1.0, 3.0 μM) with corresponding control. After 24 hrs cells were lysed and histone proteins were extracted as per established protocols and the extract was used for measuring H3 and H4 hyperacetylation by Western Blot using Anti-acetyl-Histone H3 and Anti-acetyl-Histone H4 (Millipore, USA) antibodies.

acetyl-Histone H4 = experiment: as above; format: cell-based; parameters: key: represented by the symbol ‘+’ which indicates the relative extent of modulation; ++: represented by the symbol ‘+’ which indicates the relative extent of modulation; +++: represented by the symbol ‘+’ which indicates the relative extent of modulation; ++++: represented by the symbol ‘+’ which indicates the relative extent of modulation; conditions: 24 hrs, 0.03-3.0 μM
Method: as §1

HT-29 = experiment: Cell proliferation assay (MTT); format: cell-based; conditions: Homo sapiens
Method: (§2) Cells were seeded in a 96-well cell culture plates at a concentration of 10,000 cells per well and incubated at 37° C. in CO2 incubator.
(§3) Twenty-four hours later cells were treated with different concentrations (100, 10, 1, 0.1, and 0.01 μM) of compound dissolved in DMSO and incubated for 48 hours. For To measurement, 24 hours after seeding the cells, 20 μL of 3-(4.5-dimethyl-2- thiazolyl)-2,5-diphenyl-2H-tetrazolium (MTT) solution per well was added to the T0 plate and incubated for 3 hours at 37° C. in a CO2 incubator.
(§4) The plate containing cells and test compounds was treated similarly after 48 hours of incubation. After 3 hours of MTT addition, well contents were aspirated carefully followed by addition of 100 μL DMSO per well. Plates were agitated to ensure dissolution of the formazan crystals in DMSO and absorbance was read at 570 nm (A570). […] From the percentage growths a dose response curve was generated and GI50 values were interpolated from the growth curves.

PC-3 = experiment: Cell proliferation assay (MTT); format: cell-based; conditions: Homo sapiens
Method: as §2, §3, §4

A549 = experiment: Cell proliferation assay (MTT); format: cell-based; conditions: Homo sapiens
Method: as §2, §3, §4

DU-145 = experiment: Anti-proliferative activity (GI50); format: cell-based; conditions: Homo sapiens
Method: as §2, §3, §4

KHOS = experiment: Anti-proliferative activity (GI50); format: cell-based; conditions: read-out: Anti-proliferative activity (GI50) KHOS
Method: as §2, §3, §4

Ca Ski = experiment: Anti-proliferative activity (GI50); format: cell-based; conditions: Homo sapiens, read-out: Anti-proliferative activity (GI50) Ca Ski
Method: as §2, §3, §4

HCT-15 = experiment: Anti-proliferative activity (GI50); format: cell-based; conditions: Homo sapiens
Method: as §2, §3, §4

A431 = experiment: Anti-proliferative activity (GI50); format: cell-based; conditions: Homo sapiens
Method: as §2, §3, §4

P21 = experiment: p21 induction in HeLa cells (Western Blot); format: cell-based; parameters: key: represented by the symbol ‘+’ which indicates the relative extent of modulation; ++: represented by the symbol ‘+’ which indicates the relative extent of modulation; +++: represented by the symbol ‘+’ which indicates the relative extent of modulation; ++++: represented by the symbol ‘+’ which indicates the relative extent of modulation; conditions: 24 hrs, 0.03-3.0 μM
Method: HeLa Cells were seeded at a density of 0.5×10^6 Cells/well into 6 well plates and incubated for 24 hrs. Compounds were tested at 5 different concentrations (0.03, 0.1, 0.3, 1.0, 3.0 μM) including corresponding controls. After 24 hrs cells were lysed and the cellular extract was used for measuring P21 induction by Western Blot using monoclonal Anti-p21 clone CP74 antibody (Sigma).

CYP 3A4 = target: T1, CYP 3A4 (Homo sapiens, UniProt P08684); experiment: Cytochrome-P450 isoforms liability determination; format: in vitro ADME; conditions: fluorescence based kit
T1 construct: purchased
Method: To determine the test compound liability towards Human cytochrome 450 (hCYP450) Isoforms fluorescence based screening kits.
Brief procedure: 2× test compounds were prepared by dilution with deionized water. A serial dilution of the test compound was done. 2× solution of known inhibitor were used as a positive control. 40 μL of the 2× solution that is prepared was added to the desired wells. Two replicates were included for every compound. 50 μL of the Master premix (premix of CYP450 Baclosomes, reagents and regenerating system) was dispensed into each well. The plate was incubated for 20 min at room temperature to allow the compounds to interact with the CYP450enzymes. The reaction was started by adding 10 μL of the substrate and NADP^+ mixture. The plate was incubated for the desired amount of time, and then 10 μL of stop reagent was added to each well to quench the reaction. The fluorescence was measured in the fluorescent plate reader at excitation and emission wavelengths as recommended, depending on the substrate used.

[2] = HT-29, Table 1, MTT, 48 hours, read-out: Cell growth inhibition (GI50 in μM) HT-29
[3] = HT-29, Table 9, Colon, read-out: Anti-proliferative activity (GI50) HT-29
[4] = PC-3, Table 1, MTT, 48 hours, read-out: Cell growth inhibition (GI50 in μM) PC-3
[5] = PC-3, Table 9, Prostate, read-out: Anti-proliferative activity (GI50) PC-3
[6] = A549, Table 1, MTT, 48 hours, read-out: Cell growth inhibition (GI50 in μM) A549
[7] = A549, Table 9, Lung, read-out: Anti-proliferative activity (GI50) A549
[8] = DU-145, Table 9, Prostate, read-out: Anti-proliferative activity (GI50) DU-145
[9] = HCT-15, Table 9, Colon, read-out: Anti-proliferative activity (GI50) HCT-15
[10] = A-431, Table 9, Skin, read-out: Anti-proliferative activity (GI50) A431

T1 sequence (P08684 whole entry, canonical isoform): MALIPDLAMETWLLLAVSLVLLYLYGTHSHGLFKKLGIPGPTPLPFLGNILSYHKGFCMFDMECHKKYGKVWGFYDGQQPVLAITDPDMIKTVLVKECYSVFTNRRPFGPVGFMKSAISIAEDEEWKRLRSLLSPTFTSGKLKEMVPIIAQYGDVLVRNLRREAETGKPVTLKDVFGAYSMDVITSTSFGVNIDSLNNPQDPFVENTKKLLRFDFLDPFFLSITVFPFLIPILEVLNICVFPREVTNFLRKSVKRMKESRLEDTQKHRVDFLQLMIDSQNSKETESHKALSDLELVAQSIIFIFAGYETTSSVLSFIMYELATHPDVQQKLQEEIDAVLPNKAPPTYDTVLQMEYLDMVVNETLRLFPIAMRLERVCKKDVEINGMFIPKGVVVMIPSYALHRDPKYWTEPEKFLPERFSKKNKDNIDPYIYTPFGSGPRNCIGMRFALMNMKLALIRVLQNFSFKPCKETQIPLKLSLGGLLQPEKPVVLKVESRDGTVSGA

| SMILES | PARP cleavage (cleaved PARP) | solubility [1] [µg/mL] | Target modulation: H3 acetylation (acetyl-Histone H3) | Target modulation: H4 acetylation (acetyl-Histone H4) | GI50 (HT-29; [2]) [µM] | GI50 (HT-29; [3]) [µM] | GI50 (PC-3; [4]) [µM] | GI50 (PC-3; [5]) [µM] | GI50 (A549; [6]) [µM] | GI50 (A549; [7]) [µM] | GI50 (DU-145; [8]) [nM] | GI50 (KHOS; Table 9, Bone) [nM] | GI50 (Ca Ski; Table 9, Cervix) [nM] | GI50 (HCT-15; [9]) [nM] | GI50 (A431; [10]) [nM] | P21 induction (P21) | IC50 (CYP 3A4) [µM] | other results |
| --- | --- | --- | --- | --- | --- | --- | --- | --- | --- | --- | --- | --- | --- | --- | --- | --- | --- | --- |
| O=C(NO)c1ccc(Cn2cc(-c3ccc(CN4CCCC4)cc3)nn2)cc1 [Example 8, N-Hydroxy-4-[4-(4-pyrrolidin-1-ylmethyl-phenyl)-[1,2,3]triazol-1-ylmethyl]-benzamide] | +++ | 5100 (≈ 13.5 mM) | +++ | ++++ | 0.2 | 1.3 ± 0.33 | 16.8 ± 8.8 | 4.1 ± 0.38 | 4.1 ± 0.6 | 3.1 ± 1.99 | 200 ± 60 | 2400 ± 400 | 1100 ± 490 | 19300 ± 3800 | 500 ± 130 | + | 28.3 | – |
| O=C(NO)c1ccc(Cn2cc(-c3ccc(CN4CCOCC4)cc3)nn2)cc1 [Example 9, N-Hydroxy-4-[4-(4-morpholin-4-ylmethyl-phenyl)-[1,2,3]triazol-1-ylmethyl]-benzamide] | +++ | 4700 (≈ 11.9 mM) | ++++ | ++++ | – | 1.5 ± 0.65 | 22 ± 5.4 | 13.4 ± 3.3 | 5 ± 1.6 | 4.5 ± 2.33 | 300 ± 124 | 2800 ± 360 | 1200 ± 220 | 4100 ± 3200 | 1200 ± 533 | + | 43.2 | – |
| O=C(/C=C/c1ccc(Cn2cc(-c3ccc(CN4CCCC4)cc3)nn2)cc1)NO [Example 16, N-Hydroxy-3-{4-[4-(4-pyrrolidin-1-ylmethyl-phenyl)-[1,2,3]triazol-1-ylmethyl]-phenyl}-acrylamide] | ++++ | 9400 (≈ 23.3 mM) | ++ | ++++ | 0.04 | 0.15 ± 0.13 | 12.6 ± 7.6 | 3.5 ± 2.7 | 1.7 ± 1 | 1.58 ± 1.1 | 79 ± 40 | 11700 ± 1100 | 420 ± 150 | 9800 ± 4300 | 280 ± 50 | + | 53.3 | – |
| CN(C)Cc1ccc(-c2cn(Cc3ccc(/C=C/C(=O)NO)cc3)nn2)cc1 [Example 21] | ++++ | 11600 (≈ 30.7 mM) | +++ | ++++ | – | 2.1 ± 0.46 | 11.3 ± 8.3 | 4.8 ± 1.4 | 2.2 ± 2.3 | 2.2 ± 2.22 | 100 ± 40 | 10300 ± 3260 | 1100 ± 730 | 1800 ± 1140 | 400 ± 80 | – | 28.5 | – |
| O=C(CCCCCCC(=O)Nc1ccccc1)NO [SAHA, Suberoylanilide Hydroxamic Acid, reference compound] | ++ | 230 (≈ 0.87 mM) | +++ | +++ | – | – | – | – | – | – | – | – | – | – | – | +++ | – | GI50 (HT-29; HT-29, read-out: Anti-proliferative activity (GI50) HT-29): 3.6 ± 2.6 µM; GI50 (PC-3; PC-3, read-out: Anti-proliferative activity (GI50) PC-3): 8.3 ± 0.6 µM; GI50 (A549; A549, read-out: Anti-proliferative activity (GI50) A549): 5.9 ± 2.4 µM; GI50 (DU-145; DU-145, read-out: Anti-proliferative activity (GI50) DU-145): 1300 nM; GI50 (KHOS): 29300 ± 7200 nM; GI50 (Ca Ski): 6000 ± 5300 nM; GI50 (HCT-15; HCT-15, read-out: Anti-proliferative activity (GI50) HCT-15): 5200 ± 1900 nM; GI50 (A431; A-431, read-out: Anti-proliferative activity (GI50) A431): 1900 ± 1000 nM |
